Data reported in patent US9024005B2, “Nucleic acid complexes” (priority 2010, dated 2015).
Read-outs that look alike come from different tables or passages of the source. {Fluorescein} = fluorescein label

Columns and labels:
MRSA strain, EMRSA-15 = assay: Fluorescence microscopy of uptake of labelled oligonucleotide; format: cell-based, S. aureus; conditions: delivered in Buforin II-derivatised complexes formed with Compound 7; overnight growth
Procedure: Derivatised TFD complexes were formed as described, with the exception that the TFD was substituted with a fluorescently labelled oligonucleotide, Tef, that contained a fluorescein dye at the 5′ end. The sequence of the oligonucleotide was:
The derivatised complexes are added to 200 μl of LB broth inoculated with the MRSA strain, EMRSA-15, and grown overnight with shaking at 37° C. The following morning, cells were harvested by centrifugation and washed four times in an equal volume of PBS. A drop of the bacterial suspension was placed on a microscope slide and air dried. Cells were then heat-fixed by passing the slide through a Bunsen flame. The slide was then flooded with a solution of Loeffler's methylene blue (5 mg/ml methylene blue in 69:30:1 (v/v) solution of water:methanol: 1% (w/v) KOH) and allowed to stand for 1 min, after which the excess solution was washed off with water and the cells visualised using a Cairn CCD Fluorescence Microscope.

[1] = system: Staphylococcus aureus EMRSA 16; assay: Tissue burden study, mouse sepsis model; format: in vivo; conditions: Dwass-Steel-Chritchlow-Fligner, all pairwise comparisons
Procedure: Animals were treated in groups of since mice per treatment group, therefore forty eight animals were used in total for the study. Two 10 ml cultures of Staphylococcus aureus EMRSA 16 were prepared and placed on orbital shaker (220 rpm) overnight at 37° C. The following day, the Staphylococcus aureus EMRSA 16 cultures were removed from shaker, pelleted and washed twice before being resuspended in saline to an OD of 0.132 (1.5×10^8 cfu/ml). This stock solution of Staphylococcus aureus EMRSA 16 was then further diluted 1:1.5 in saline (1×10^8 cfu/ml) i.e. 2.0×10^7 bacteria per mouse.
All forty eight mice were then infected with 0.2 ml of the 1.0×10^8/ml suspension by intravenous injection into mouse tail vein. The number of Staphylococcus aureus EMRSA 16 bacteria per ml in the remainder of the suspensions after inoculation was also counted to confirm infection load.
Mice were treated 1, 9 and 17 hours post infection with either compound or vehicle, though vancomycin was only administered after 1 h.
After 25 hours post infection, all animals were weighed and then euthanised. […] Organ homogenates were quantitatively cultured onto CLED agar and incubated at 37° C. for up to 3 days and colonies counted. The data from the culture burdens was analysed by the Kruskal-Wallis test using Stats Direct. […]

[2] = Vesicle size distribution of hairpin TFD complexes (Malvern Nanosizer); format: physicochemical; conditions: TFD complexes containing hairpin TFD SA SIG and the delivery compound
Procedure: To prepare delivery complexes, 10 mg of compound was suspend in 12.5 ml of 5 mM Hepes pH7.5 (final concentration 0.8 mg/ml) and dissolved by sonication (30×30 s on, 30 s off, on ice at 10μ). Absorbance of the resulting solution was measured at 327 nm to establish an accurate concentration. 12.5 μl delivery compound was mixed with 40 μl 10 μM TFD and 447.5 μl 5 mM Hepes (pH7.5) and sonicated in an ice bath using an MSE 150 Soniprep attached with a microprobe. Thirty cycles of sonication were performed with 30 s on (with 50% power, approximately 10μ) and 30 s off.
The size distributions of the formed vesicles were measured using a Malvern Nanosizer using standard methodology and are set out in Table 3 below: […]

TFD = assay: SYBR Green-DNA binding assay: binding of bolasomes to TFDs; conditions: at the concentrations used for sC7 bolasomes; 2 μg TFD/ml
Procedure: To determine the proportion of TFDs being bound by the vesicles, a SYBR-green binding assay was used. TFD complexes were formed as described above in Hepes buffer with the adaptation that the buffer contained 5 μl of a 1 in 10 dilution of SYBR Green I dye (Invitrogen, 10,000× stock prepared in DMSO). Fluorescence was measured (λEX 497 nm, λEM 520 nm) to determine how much bolasome needed to be added to quench the binding of SYBR Green to the TFDs.
SYBR-Green I dye binds specifically to double-stranded DNA and, as it does, gives a strong fluorescent signal. By measuring the change in signal in the presence of different concentrations and types of bolasome, it was possible to calculate the minimum amount of bolasome needed to quench the SYBR-Green binding, due to the dye being excluded by the bolasomes. This was achieved by extrapolation from the linear portion of a titration curve that plotted amount of bolasome added to fluorescent signal. […] At these concentrations no quenching was seen by the monomeric C7.

[3] = Weissig et al. 2001 S. T. P. Pharma Sci. 11: 91-96, Table I; cited from earlier work
[4] = Weissig et al. (2006) J. Liposome Res. 16: 249-264, cited from earlier work
EMRSA-15 = assay: Growth assay, TFDs delivered by antibacterial peptides; format: cell-based, S. aureus; conditions: for bacterial growth of EMRSA-15, agent alone: TFD alone or Gramicidin alone; for bacterial growth of EMRSA-15, agent alone / bacterial growth of EMRSA-15, TFD with Gramicidin: LB media; for bacterial growth of EMRSA-15, TFD with Gramicidin: 1 μg DB-TFD with 150 ng/ul of Gramicidin; for growth of EMRSA-15, TFD mixed with Buforin II: 96 well plate in vitro assay
Procedure: The following antibacterial peptides were assayed for their ability to deliver TFDs to bacterial cells: Gramicidin, Polymyxin nonapeptide (both purchased from Sigma Aldrich) and Buforin II (Park et al. (2000) Proc. Natl. Acad. Sci. USA 97: 8245-8250). Typically 1 μg of the Sig DB-TFDs and SigScr DB-TFD as described in Example 1 were mixed with between 0.2 and 5 μg of Gramicidin in a total volume of 5 μl 50 mM NaCl. Of this, 1 μl was added to 200 μl of LB broth inoculated with a 1/100 dilution of a glycerol stock of EMRSA-15 at an original density of 0.3 OD (Absorbance at 600 nm) and aliquoted into a well of a 96 well plate. Experiments were performed in triplicate. The plates were incubated at 37° C. with shaking and absorbance readings (at […]) were taken using a plate reader.

Tef: fluorescein 5′-labelled oligonucleotide, SEQ ID NO: 52, substitute for the TFD (AGGCGGCCGCGAATTCACTAGTGA; DNA, 5' {Fluorescein}, backbone not given here; listed as Staphylococcus aureus)
uptake of labelled oligonucleotide into bacteria (fluorescence view) (MRSA strain, EMRSA-15): had been internalised

Sig TFD: transcription factor decoy with S. aureus Sig binding site (SEQ ID NO:9), given alone at 1 nM (TTATTATATACCCATCGAAATAATTTCTAATCTTC; DNA, backbone not given here; further chemistry not fully specified; listed as Staphylococcus aureus)
Kruskal-Wallis pairwise comparison of kidney burden vs Vancomycin [1]: <0.0001
Kruskal-Wallis pairwise comparison of kidney burden vs Vehicle [1]: 0.9203

Nc1c2c([n+](CCCCCCCCCC[n+]3c4c(c(N)c5ccccc53)CCCC4)c3ccccc13)CCCC2.[Cl-].[Cl-] [Compound 7, 10,10′-(decane-1,10-diyl)bis(9-amino-1,2,3,4-tetrahydroacridinium)dichloride]
Vesicle size distribution (nm) [2]: 139 +/− 35 nm
quenching of SYBR-Green binding (TFD): no quenching
published size distribution of the vesicles [3]: 169 nm
in vitro toxicity compared to dequalinium [4]: less in vitro toxicity than dequalinium
in vitro toxicity compared to dequalinium ([4]; listed as Compound 7 analogue): lower toxicity in vitro compared to dequalinium

Gramicidin [reference compound]
bacterial growth of EMRSA-15, agent alone (EMRSA-15): grew as well as the untreated control

Nc1c2c([n+](CCCCCCCCCCCC[n+]3c4c(c(N)c5ccccc53)CCCC4)c3ccccc13)CCCC2.[Cl-].[Cl-] [Compound 7_12, 10,10′-(dodecane-1,12-diyl)bis(9-amino-1,2,3,4-tetrahydroacridinium)dichloride]
Vesicle size distribution (nm) [2]: 117 +/− 32 nm

Cc1cc(N)c2ccccc2[n+]1CCCCCCCCCC[n+]1c(C)cc(N)c2ccccc21 [Dequalinium, reference compound]
Vesicle size distribution (nm) [2]: 75-820 nm

B1: scrambled version of the DB-TFD: dumbbell TFD with scrambled Sig binding site, SEQ ID NO: 43 and 44 (nucleic acid)
chain 1: CTTGGTTTTTCCAAGTAGAAAGAAGATTTAGGGCGATTTTATAATATAT
chain 2: CCGTCTTTTTGACGGATATATTATAAAATCGCCCTAAATCTTCTTTCTA
modifications: DNA, backbone not given here; dumbbell decoy with hairpin loops
bacterial growth of EMRSA-15, TFD with Gramicidin (EMRSA-15): grew as well as the untreated control
growth of EMRSA-15, TFD mixed with Buforin II (EMRSA-15): no discernable effect on growth

B2: Sig DB-TFD: dumbbell TFD with recognition site for S. aureus alternative sigma protein, SEQ ID NO: 30 and 31 (nucleic acid)
chain 1: CTTGGTTTTTCCAAGGAAGATTAGAAATTATTTCGATGGGTATATAATA
chain 2: CCGTCTTTTTGACGGTATTATATACCCATCGAAATAATTTCTAATCTTC
modifications: DNA, backbone not given here; phosphorylated oligos forming dumbbell with hairpin loops, further chemistry not fully specified
bacterial growth of EMRSA-15, TFD with Gramicidin (EMRSA-15): no bacterial growth
growth of EMRSA-15, TFD mixed with Buforin II (EMRSA-15): prevented growth
bacterial growth of EMRSA-15, agent alone (EMRSA-15): grew as well as the untreated control
